Data: PubChem BioAssay (NCI)
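How tested: cells in 96-well plates exposed to compound for 48 hours at five concentrations. GI50: concentration for 50% inhibition of growth. TGI is the concentration that stops growth completely.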

Columns and labels:
Test in all cases: DTP human tumour cell line panel, 48 h
SW-620 colon = test system: SW-620 colon
OVCAR-3 ovarian = test system: OVCAR-3 ovarian
A498 renal = test system: A498 renal
SF-268 CNS = test system: SF-268 CNS
M14 melanoma = test system: M14 melanoma
OVCAR-4 ovarian = test system: OVCAR-4 ovarian
IGROV1 ovarian = test system: IGROV1 ovarian
SK-MEL-2 melanoma = test system: SK-MEL-2 melanoma
RXF 393 renal = test system: RXF 393 renal
MDA-MB-435 = test system: MDA-MB-435
SK-MEL-5 melanoma = test system: SK-MEL-5 melanoma
COLO 205 colon = test system: COLO 205 colon
786-0 renal = test system: 786-0 renal
OVCAR-8 ovarian = test system: OVCAR-8 ovarian
U251 CNS = test system: U251 CNS
UO-31 renal = test system: UO-31 renal
HCC-2998 colon = test system: HCC-2998 colon
OVCAR-5 ovarian = test system: OVCAR-5 ovarian
T-47D breast = test system: T-47D breast
SN12C renal = test system: SN12C renal
NCI-H522 lung = test system: NCI-H522 lung
NCI-H226 lung = test system: NCI-H226 lung
PC-3 prostate = test system: PC-3 prostate
SNB-75 CNS = test system: SNB-75 CNS
SF-295 CNS = test system: SF-295 CNS
HT29 colon = test system: HT29 colon

For `CCCCCCCCc1cc[n+](CC(=O)c2ccc(Br)cc2)cc1`, the GI50 (SW-620 colon) was 1410 nM, the TGI (SW-620 colon) was 2770 nM and the GI50 (OVCAR-3 ovarian) was 1440 nM. For the same molecule, the TGI (OVCAR-3 ovarian) was 2750 nM, the GI50 (A498 renal) was 4.42 µM and the TGI (A498 renal) was 18.1 µM. For the same molecule, the GI50 (SF-268 CNS) was 1580 nM, the TGI (SF-268 CNS) was 2920 nM and the GI50 (M14 melanoma) was 1750 nM. It also gave a TGI (M14 melanoma) of 3.24 µM, a GI50 (OVCAR-4 ovarian) of 1110 nM and a TGI (OVCAR-4 ovarian) of 2310 nM. The GI50 (IGROV1 ovarian) was 1090 nM, the TGI (IGROV1 ovarian) was 2450 nM and the GI50 (SK-MEL-2 melanoma) was 1610 nM. For the same molecule, the TGI (SK-MEL-2 melanoma) was 3.03 µM, the GI50 (RXF 393 renal) was 1690 nM and the TGI (RXF 393 renal) was 3.17 µM. The GI50 (MDA-MB-435) was 1540 nM, the TGI (MDA-MB-435) was 2970 nM and the GI50 (SK-MEL-5 melanoma) was 1510 nM. The TGI (SK-MEL-5 melanoma) was 2890 nM, the GI50 (COLO 205 colon) was 1090 nM and the TGI (COLO 205 colon) was 2280 nM. It also gave a GI50 (786-0 renal) of 1870 nM, a TGI (786-0 renal) of 3.3 µM and a GI50 (OVCAR-8 ovarian) of 1680 nM. It also gave a TGI (OVCAR-8 ovarian) of 3.22 µM, a GI50 (U251 CNS) of 1470 nM and a TGI (U251 CNS) of 2790 nM. For the same molecule, the GI50 (UO-31 renal) was 1490 nM, the TGI (UO-31 renal) was 3.19 µM and the GI50 (HCC-2998 colon) was 1610 nM. The TGI (HCC-2998 colon) was 2960 nM, the GI50 (OVCAR-5 ovarian) was 1460 nM and the TGI (OVCAR-5 ovarian) was 2900 nM. It also gave a GI50 (T-47D breast) of 1640 nM, a TGI (T-47D breast) of 3.14 µM and a GI50 (SN12C renal) of 1550 nM. It also gave a TGI (SN12C renal) of 2980 nM, a GI50 (NCI-H522 lung) of 1020 nM and a TGI (NCI-H522 lung) of 2260 nM. The GI50 (NCI-H226 lung) was 1510 nM, the TGI (NCI-H226 lung) was 3.01 µM and the GI50 (PC-3 prostate) was 1510 nM. For the same molecule, the TGI (PC-3 prostate) was 3000 nM, the GI50 (SNB-75 CNS) was 1280 nM and the TGI (SNB-75 CNS) was 2540 nM. For the same molecule, the GI50 (SF-295 CNS) was 1440 nM, the TGI (SF-295 CNS) was 2830 nM and the GI50 (HT29 colon) was 580 nM. For the same molecule, the TGI (HT29 colon) was 1970 nM.
